Test results published in PubChem BioAssay (NCI).
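How tested: cells in 96-well plates exposed to compound for 48 hours at five concentrations. GI50 = concentration required for 50% inhibition of growth. TGI marks complete inhibition of growth.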

Key:
Test in all cases: NCI anticancer screen, dose series, 48 h
SK-OV-3 ovarian = tested on: SK-OV-3 ovarian
ACHN renal = tested on: ACHN renal
UACC-62 melanoma = tested on: UACC-62 melanoma
HT29 colon = tested on: HT29 colon
MOLT-4 leukemia = tested on: MOLT-4 leukemia
A498 renal = tested on: A498 renal
HOP-92 NSCLC = tested on: HOP-92 NSCLC
MDA-MB-231 breast = tested on: MDA-MB-231 breast
BT-549 breast = tested on: BT-549 breast
HOP-62 NSCLC = tested on: HOP-62 NSCLC

Structure (SMILES) | TGI (SK-OV-3 ovarian) | TGI (ACHN renal) [µM] | TGI (UACC-62 melanoma) [µM] | TGI (HT29 colon) [µM] | TGI (MOLT-4 leukemia) [µM] | TGI (A498 renal) [µM] | TGI (HOP-92 NSCLC) [µM] | TGI (MDA-MB-231 breast) [µM] | TGI (BT-549 breast) [µM] | GI50 (A498 renal) [µM] | GI50 (HOP-92 NSCLC) | GI50 (SK-OV-3 ovarian) | GI50 (HOP-62 NSCLC) [µM] | TGI (HOP-62 NSCLC) [µM] | GI50 (ACHN renal) [µM] | GI50 (UACC-62 melanoma) | GI50 (HT29 colon) | GI50 (BT-549 breast) [µM] | GI50 (MDA-MB-231 breast) [µM] | GI50 (MOLT-4 leukemia)
CCC1C(C)c2c([nH]c3ccccc23)C2C(=O)N(c3ccccc3)C(=O)C21 (configuration not stated) | 44.1 µM | 66.5 | 21.9 | 28.2 | 49.3 | – | – | – | – | – | – | – | – | – | – | – | – | – | – | –
O=c1[nH]cc(CS(=O)(=O)Cc2c[nH]c(=O)[nH]c2=O)c(=O)[nH]1 | – | > 100 | > 100 | > 100 | > 100 | > 100 | > 100 | > 100 | > 100 | – | – | – | – | – | – | – | – | – | – | –
COc1ccc2c(c1)CCC1C2CC[C@@]2(C)C1CC[C@@]2(O)CNC(=O)/C=C/c1ccc(O)c(OC)c1 (some centres not stated) | > 100 µM | 46.7 | 34.9 | 10.8 | – | 54.5 | 60 | – | 75.7 | 23 | 14.9 µM | 66.1 µM | 31.8 | > 100 | 17.5 | 12.1 µM | 2.8 µM | 16.2 | – | –
C=C(CN1CCN(c2ccccc2OC)CC1)c1ccc(C(=O)Nc2ccccc2N)cc1 | 18.1 µM | 4.95 | 6.92 | – | – | – | 44.5 | 4.4 | 26.9 | – | 5.73 µM | 7.18 µM | 3.27 | > 50 | 0.856 | 1.18 µM | – | 7.12 | 0.315 | –
Cc1c[nH]c2c1C13CC1CN(C(=O)c1cc4cc(NC(=O)c5cc6ccccc6o5)ccc4[nH]1)C3=CC2=O (configuration not stated) | 218 ng/mL | – | < 0.001 | 0.143 | 0.0031 | – | – | – | – | – | > 1.17 ng/mL | > 1.17 ng/mL | – | – | – | > 1.17 ng/mL | > 1.17 ng/mL | – | – | > 1.17 ng/mL
Cc1cccc(NC(=O)C(=O)C2C(=O)NC(=O)NC2=O)c1C | > 100 µM | > 100 | > 100 | > 100 | > 100 | > 100 | > 100 | – | – | – | – | – | – | > 100 | – | – | – | – | – | –
Cc1ccc(S(=O)(=O)N(/N=C(\N)Oc2ccc(Cl)cc2)C(=N)Oc2ccc(Cl)cc2)cc1 | > 100 µM | > 100 | > 100 | > 100 | > 100 | > 100 | > 100 | – | – | – | – | – | – | > 100 | – | – | – | – | – | –
COC(=O)c1c[nH]c(=O)[nH]c1=O | – | > 100 | > 100 | – | > 100 | – | > 100 | – | – | – | – | – | – | – | – | – | – | – | – | –
OCC(O)C(O)c1nn(-c2ccccc2)c2nc3cc(Cl)c(Cl)cc3nc12 (configuration not stated) | > 100 µM | 75.6 | > 100 | 56 | > 100 | – | 82.1 | – | – | – | – | – | – | > 100 | – | – | – | – | – | –
COc1cc([C@@H]2c3cc4c(cc3[C@@H](NC(=O)c3ccc(N)cc3)C3COC(=O)[C@@H]32)OCO4)cc(OC)c1O (some centres not stated) | 8.06 µM | 4.9 | 10.9 | 19.4 | 3.78 | 11.8 | > 100 | – | – | – | – | – | – | 3.95 | – | – | – | – | – | –
O=[N+]([O-])c1cccc([N+](=O)[O-])c1S(=O)(=O)c1ccccc1 | 31.2 µM | 3.92 | – | 36.2 | – | 36.1 | 7.18 | 37.3 | 13.6 | – | – | – | – | 35.1 | – | – | – | – | – | –
CC#C[C@@]1(O)CCCC[C@@H]1O | > 100 µM | > 100 | > 100 | > 100 | > 100 | > 100 | > 100 | – | – | – | – | – | – | > 100 | – | – | – | – | – | –
c1ccc2c(CNCCCCCCNCc3cccc4ccccc34)cccc2c1 | 31.5 µM | 29.5 | 21.6 | 5.04 | 6.46 | 33.6 | 20.5 | – | – | – | – | – | – | 30.6 | – | – | – | – | – | –
COc1ccc2cccc(C(=O)c3ccc(C)c4c3CCC4)c2c1 | > 100 µM | > 100 | 56.5 | > 100 | 97.2 | 83.7 | – | – | – | – | – | – | – | 69.3 | – | – | – | – | – | –
Cc1cnc[nH]c1=O | > 100 µM | > 100 | > 100 | > 100 | > 100 | > 100 | – | – | – | – | – | – | – | > 100 | – | – | – | – | – | –
S=c1nc(-c2ccccc2)oc(=NC2CCCCC2)n1C1CCCCC1 | > 100 µM | 14.2 | 21 | 14.8 | 6.01 | 13 | 0.079 | 15.9 | – | 3.61 | – | 5.05 µM | 5.9 | 23.1 | 4.14 | 5.92 µM | 4.1 µM | – | 3.69 | 1.54 µM
O=C(CC(=O)N1N=C(c2ccccc2)C(N=Nc2ccc(C(=O)O)cc2)C1=O)Nc1ccc(F)cc1 (configuration not stated) | 62.6 µM | > 100 | 42.8 | > 100 | – | 81.7 | > 100 | – | – | – | – | – | – | – | – | – | – | – | – | –
Cc1ccc2c(c1)C(=O)c1c-2n(CCCN)c(=O)c2cc([N+](=O)[O-])ccc12 | 0.502 µM | 0.609 | 1.11 | – | 0.129 | 17.1 | 1.18 | 0.827 | 1.57 | 5.68 | 0.435 µM | 0.147 µM | 0.0389 | 0.428 | 0.106 | 0.522 µM | – | 0.746 | 0.293 | 0.0244 µM
CC(C)[C@@H]1C=C(c2ccccc2)c2ccccc2C1C(C#N)(C#N)C(C)C (some centres not stated) | > 100 µM | > 100 | > 100 | > 100 | > 100 | > 100 | > 100 | – | – | – | – | – | – | > 100 | – | – | – | – | – | –
NCCCCCS(=O)(=O)O | > 100 µM | > 100 | > 100 | > 100 | > 100 | > 100 | – | – | – | – | – | – | – | > 100 | – | – | – | – | – | –
COc1ccc(C2OC(=O)c3c2ccc2ccccc32)c(C)c1 (configuration not stated) | – | > 100 | 90.5 | > 100 | 37 | 21.2 | 80.1 | > 100 | 69.4 | – | – | – | – | 50 | – | – | – | – | – | –
Nc1nc2c(ncn2C2OC(CO)C(O)C2N)c(=O)[nH]1 (configuration not stated) | > 100 µM | > 100 | > 100 | > 100 | > 100 | > 100 | > 100 | – | – | – | – | – | – | > 100 | – | – | – | – | – | –
Nc1[nH]c(=O)ncc1F | > 100 µM | > 100 | > 100 | > 100 | > 100 | > 100 | > 100 | – | > 100 | – | – | – | – | > 100 | – | – | – | – | – | –
